How the values were obtained:
PC-3 = assay: Antiproliferative activity against PC-3 cancer cells; format: functional, cell-based; conditions: Homo sapiens
Homo sapiens = species on record: Homo sapiens; assay: Antiproliferative activity against SQ-20B cancer cells; format: functional; conditions: Cancer cell lines
MCF7 = assay: Antiproliferative activity against MCF-7 cancer cell line; format: functional, cell-based; conditions: Homo sapiens
HeLa = assay: Antiproliferative activity towards human HeLa cancer cells; format: functional, cell-based

IC50 (PC-3)	IC50 (MCF7)	IC50 (HeLa)	Structure (SMILES)	IC50 (Homo sapiens)
50 µM	80 µM	–	O=C(CS)NCCCCCC(=O)Nc1cnc2ccccc2c1	100 µM
33 µM	42 µM	30 µM	O=C(CS)NCCCCCC(=O)Nc1cccc2cccnc12	31 µM
110 µM	125 µM	108 µM	CN(C)c1ccc(C(=O)NCCCCCNC(=O)CS)cc1	100 µM
100 µM	–	80 µM	O=C(CS)NCCCCCNC(=O)c1ccc(-c2ccccc2)cc1	130 µM
